Test results: patent publication US11903916B2, “Methods of using probenecid for treatment of coronavirus infections” (University of Georgia Research Foundation, Inc., priority 2020, dated 2024)
Where two headings read alike, the source gives them in different places.

Columns and labels:
SARS-CoV-2 [1] = format: cell-based; conditions: for reduction in plaque formation compared to DMSO treated infected control: post-treatment after 1 hour infection, Vero E6, MOI 0.01, 4 days, FIG. 3
SARS-CoV-2 [2] = format: cell-based; conditions: for reduction in plaque formation compared to DMSO treated infected control: 24 h pre-treatment, Vero E6, MOI 0.01, 4 days

SMILES: CCCN(CCC)S(=O)(=O)c1ccc(C(=O)O)cc1 [Probenecid, 4-[(dipropylamino)sulfony1] benzoic acid]
- viral titer/plaque formation (SARS-CoV-2 [1]; post-treatment at the concentrations tested): significantly reduces viral titer/plaque formation
- reduction in plaque formation compared to DMSO treated infected control (SARS-CoV-2 [1]; probenecid 0.0001 μM): ~40%
- reduction in plaque formation compared to DMSO treated infected control (SARS-CoV-2 [1]; probenecid 5 μM): ~90%
- viral titer/plaque formation (SARS-CoV-2 [2]; 24 hour pretreatment at the concentrations tested): significantly reduces viral titer/plaque formation
- reduction in plaque formation compared to DMSO treated infected control (SARS-CoV-2 [2]; probenecid 0.0001 μM, another experiment, FIG. 2): ~50%
- reduction in plaque formation compared to DMSO treated infected control (SARS-CoV-2 [2]; probenecid 0.1 μM, FIG. 1): ~72%
